≈ marks a conversion by molar mass, not a printed value.
Tested on: Botrytis cinerea
Assay: Antifungal actiivty against Botryotinia fuckeliana
Type: functional
Details: not given

Compound	MIC
CCCCC1CC2=C(CC(C(O)CCCC)C3=C1C(=O)OC3=O)C(=O)OC2=O (stereo unspecified)	0.78 µg/mL (≈ 2 µM)

Tested on: Botrytis cinerea
Assay: Antifungal actiivty against Botryotinia fuckeliana ACCC 30387 assessed as inhibition of radial growth after 3 days
Type: functional
Details: ACCC 30387, 72 h

Compound	MIC
CC1=C(C)C(=O)N(Cc2ccccc2)C1=O	5 µg/mL (≈ 23.2 µM)
CC1=C(C)C(=O)N(CCc2ccccc2)C1=O	75 µg/mL (≈ 327 µM)
CC1=C(C)C(=O)N(CCCc2ccccc2)C1=O	10 µg/mL (≈ 41.1 µM)
Cc1ccc2c(c1)C(=O)OC2=O	> 1000 µg/mL
O=C(O)c1ccc2c(c1)C(=O)OC2=O	> 1000 µg/mL
O=C1OC(=O)c2c(F)cccc21	500 µg/mL (≈ 3010 µM)
O=C1OC(=O)c2c(F)ccc(F)c21	150 µg/mL (≈ 815 µM)
O=C1OC(=O)c2c(F)c(F)c(F)c(F)c21	500 µg/mL (≈ 2270 µM)
O=C1OC(=O)c2cc(Cl)c(Cl)cc21	500 µg/mL (≈ 2300 µM)
O=C1OC(=O)c2c1ccc(Cl)c2Cl	> 1000 µg/mL
O=C1OC(=O)c2c(Cl)ccc(Cl)c21	> 1000 µg/mL
O=C1C=C(Br)C(=O)O1	1000 µg/mL (≈ 5650 µM)
O=C1C=C(c2ccccc2)C(=O)O1	150 µg/mL (≈ 861 µM)
O=C1OC(=O)C(c2ccccc2)=C1c1ccccc1	20 µg/mL (≈ 79.9 µM)
O=C1OC(=O)C(Cl)=C1Cl	100 µg/mL (≈ 599 µM)
CC1=C(C)C(=O)OC1=O	3 µg/mL (≈ 23.8 µM)
CC1=C(CBr)C(=O)OC1=O	10 µg/mL (≈ 48.8 µM)
CC1=C(CO)C(=O)OC1=O	> 1000 µg/mL
CCOC(=O)C(CC1=C(C)C(=O)OC1=O)C(=O)OCC	8 µg/mL (≈ 28.1 µM)
CC1=C(CCC(=O)O)C(=O)OC1=O	80 µg/mL (≈ 434 µM)
O=C1OC(=O)C(CBr)=C1CBr	125 µg/mL (≈ 440 µM)
CCCC1=C(C)C(=O)OC1=O	25 µg/mL (≈ 162 µM)
CCCCCC1=C(C)C(=O)OC1=O	5 µg/mL (≈ 27.4 µM)

Compound	MIC
CCCCCCC1=C(C)C(=O)OC1=O	4 µg/mL (≈ 20.4 µM)
CCCCCCCCCCC1=C(C)C(=O)OC1=O	3 µg/mL (≈ 11.9 µM)
CC(=O)OCC1=C(C)C(=O)OC1=O	20 µg/mL (≈ 109 µM)
CC1=C(COC(=O)c2ccccc2)C(=O)OC1=O	15 µg/mL (≈ 60.9 µM)
CC1=C(CNc2cc(Cl)cc(Cl)c2)C(=O)OC1=O	50 µg/mL (≈ 175 µM)
CCCCN1C(=O)C(C)=C(C)C1=O	5 µg/mL (≈ 27.6 µM)
CC1=C(C)C(=O)N(CC(C)C)C1=O	50 µg/mL (≈ 276 µM)
CCCCCN1C(=O)C(C)=C(C)C1=O	5 µg/mL (≈ 25.6 µM)
CCCCCCN1C(=O)C(C)=C(C)C1=O	5 µg/mL (≈ 23.9 µM)
CCCCCCCCN1C(=O)C(C)=C(C)C1=O	50 µg/mL (≈ 211 µM)
CCCCCCCCCCCCN1C(=O)C(C)=C(C)C1=O	50 µg/mL (≈ 170 µM)
CC1=C(C)C(=O)N(C2CCCCC2)C1=O	10 µg/mL (≈ 48.2 µM)
CC1=C(C)C(=O)N(c2ccc(C)cc2)C1=O	5 µg/mL (≈ 23.2 µM)
CC1=C(C)C(=O)N(c2ccc(Cl)cc2)C1=O	10 µg/mL (≈ 42.4 µM)
CC1=C(C)C(=O)N(c2cc(Cl)cc(Cl)c2)C1=O	0.1 µg/mL (≈ 0.37 µM)
CC1=C(C)C(=O)N(c2cccc([N+](=O)[O-])c2C)C1=O	10 µg/mL (≈ 38.4 µM)
CC1=C(C)C(=O)N(c2nc3ccccc3[nH]2)C1=O	10 µg/mL (≈ 41.5 µM)
CC1=C(C)C(=O)N(c2ccc(F)c(F)c2F)C1=O	1 µg/mL (≈ 3.92 µM)
CC1=C(C)C(=O)N(c2ccccc2)C1=O	1 µg/mL (≈ 4.97 µM)
Nc1c(Cl)cc([N+](=O)[O-])cc1Cl [ALLISAN]	0.1 µg/mL (≈ 0.483 µM)
O=C1C=CC(=O)O1 [MALEIC ANHYDRIDE]	250 µg/mL (≈ 2550 µM)
O=C1OC(=O)c2ccccc21 [PHTHALIC ANHYDRIDE]	> 1000 µg/mL

— ChEMBL document CHEMBL3046375, “Antifungal activity of simple compounds with maleic anhydride or dimethylmaleimide structure against Botrytis cinerea” (J Pestic Sci, 2012)
